The structures appear in SMILES notation.

Here are results for 26 compounds from patent US8431704B2, “Quinoline or isoquinoline substituted P2X7 antagonists” (Janssen Pharmaceutica NV, priority 2008, dated 2013).

The target of this assay is T1, hP2X7 (Homo sapiens, UniProt Q99572).
T1 construct: expressed in transfected cells; host or cells: 1321N1 astrocytoma cells
T1 sequence (Q99572 1-595): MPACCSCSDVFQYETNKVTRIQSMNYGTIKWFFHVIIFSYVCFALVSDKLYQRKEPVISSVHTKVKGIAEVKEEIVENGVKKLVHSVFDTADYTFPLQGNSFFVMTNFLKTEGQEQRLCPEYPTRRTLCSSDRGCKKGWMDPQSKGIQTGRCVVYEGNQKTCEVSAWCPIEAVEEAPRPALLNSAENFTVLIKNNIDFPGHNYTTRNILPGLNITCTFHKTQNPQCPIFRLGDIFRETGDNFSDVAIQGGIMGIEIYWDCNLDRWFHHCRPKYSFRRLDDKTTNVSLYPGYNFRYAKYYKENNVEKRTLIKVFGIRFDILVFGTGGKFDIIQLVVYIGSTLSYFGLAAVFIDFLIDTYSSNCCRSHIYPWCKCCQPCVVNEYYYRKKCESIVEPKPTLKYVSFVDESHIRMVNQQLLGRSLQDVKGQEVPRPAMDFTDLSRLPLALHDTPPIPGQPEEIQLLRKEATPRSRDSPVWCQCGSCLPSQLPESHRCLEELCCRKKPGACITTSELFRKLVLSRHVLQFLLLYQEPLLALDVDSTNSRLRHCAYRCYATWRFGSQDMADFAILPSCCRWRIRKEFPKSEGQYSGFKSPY
The assay can be described thus: P2X7 antagonism: ligand-induced Ca2+ flux in 1321N1 astrocytoma cells overexpressing hP2X7. Type of assay: cell-based. The following applies: pIC50 = -log(IC50), read-out: hP2RX7pIC50 (mean pIC50 values) (converted). The protocol: Extracellular binding of ATP to P2X7 that is expressed in the cell-membrane opens the ligand gated cation channel and allows Ca^2+ entry into the cell. This ligand-induced Ca^2+ flux was measured in 1321N1 astrocytoma cells overexpressing hP2X7 for the compounds of the present invention.
The calcium assay kit used (Molecular Devices, R8090), provides a Ca^2+ sensitive dye together with a quenching dye. However, no specifications are given by the manufacturer. The kit most likely consists of a membrane permeable acetoxymethyl (AM) ester of a fluorescent Ca^2+ indicator, such as fluo-4 or fluo-3. Upon cellular uptake, the AM esters get cleaved by esterases, liberating the Ca^2+-sensitive dye which can then bind calcium. The dyes have an absorption spectrum compatible with excitation at 488 nm by argon laser sources and a large fluorescence intensity increase in response to Ca^2+ binding without an accompanying spectral shift. Emission wavelength is in the range of 510-560 nm.
The fluorescence, and thus the changes in intracellular [Ca^2+] in the 1321N1 cells was monitored in time before and after addition of the agonist. The effect of the antagonist was measured as % control and as IC50.
For orientation: Calcium flux is commonly read through the fluorescence of an indicator in the cells.

On to `CC(=O)N1CCN(c2ncc(C(CNC(=O)c3cccc4nc(NC5CC5)ccc34)N3CCC(F)(F)CC3)cn2)CC1` (centres unmarked) [Compound 251], for which the IC50 was 64.6 nM.

With `CCOc1ncc(C(CNC(=O)c2cccc3nc(N4CCN(C(C)C)CC4)ccc23)N2CCOCC2)cn1` (centres unmarked) [Compound 310], the IC50 was 56.2 nM.

Regarding `O=C(NCC(c1cnc(N2CCCC2)nc1)N1CCC(F)(F)CC1)c1cccc2nc(NC3CC3)ccc12` (centres unmarked) [Compound 190], the IC50 is 77.6 nM.

On to `CC(C)Oc1ncc(C(CNC(=O)c2cccc3nc(NC4CC4)ccc23)N2CCC(F)(F)CC2)cn1` (centres unmarked) [Compound 236], for which the IC50 is 34.7 nM.

In the case of `CC(C)c1ncc(C(CNC(=O)c2cccc3nc(N4CCCC4)ccc23)N2CCOCC2)cn1` (centres unmarked) [Compound 210], the IC50 is 372 nM.

For the compound `O=C(NCC(c1cnc(N2CCNCC2)nc1)N1CCC(F)(F)CC1)c1cccc2nc(N3CCOCC3)ccc12` (centres unmarked) [Compound 287], the IC50 was 105 nM.

As to `O=C(NCC(c1cnc(C(F)(F)F)nc1)N1CCOCC1)c1cccc2nc(NC3CCC3)ccc12` (centres unmarked) [Compound 183], the IC50 was 53.7 nM.

Turning to `O=C(NCC(c1ccc(C(F)(F)F)nc1)N1CCC(F)(F)CC1)c1cccc2cnccc12` (centres unmarked) [Compound 16], the IC50 was 224 nM.

Regarding `O=C(NCC(c1cnc(-c2ccccc2)nc1)N1CCC(F)(F)CC1)c1cccc2nc(NCC3CC3)ccc12` (centres unmarked) [Compound 237], the IC50 is 89.1 nM.

As to `O=C(NCC(c1cnc(C(F)(F)F)nc1)N1CCCOCC1)c1cccc2nc(NCC3CCOCC3)ccc12` (centres unmarked) [Compound 94], the IC50 was 81.3 nM.

For `CC(C)CNc1ccc2c(C(=O)NCC(c3cnc(C(F)(F)F)nc3)N3CCOCC3)cccc2n1` (centres unmarked) [Compound 180], the IC50 was 67.6 nM.

Take `CC(C)C1CCN(c2ccc3c(C(=O)NCC(c4cnc(C(F)(F)F)nc4)N4CCOCC4)cccc3n2)CC1` (centres unmarked) [Compound 196]: the IC50 is 195 nM.

For `COCC(C)Nc1ccc2c(C(=O)NCC(c3cnc(C(F)(F)F)nc3)N3CCOCC3)cccc2n1` (centres unmarked) [Compound 278], the IC50 is 87.1 nM.

For `O=C(NCC(c1cnc(C(F)(F)F)nc1)N1CCC(F)(F)CC1)c1cccc2nc(NCC3CCOCC3)ccc12` (centres unmarked) [Compound 146], the IC50 was 47.9 nM.

Regarding `O=C(NCC(c1cnc(-c2ccccc2)nc1)N1CCC(F)(F)CC1)c1cccc2nc(N3CCOCC3)ccc12` (centres unmarked) [Compound 191], the IC50 was 64.6 nM.

Consider `CC(C)Oc1ncc(C(CNC(=O)c2cccc3nc(N4CCOCC4)ccc23)N2CCC(F)(F)CC2)cn1` (centres unmarked) [Compound 235], for which the IC50 is 56.2 nM.

In the case of `CC(C)N1CCN(c2ccc3c(C(=O)NCC(c4cnc(N(C)C)nc4)N4CCC(F)(F)CC4)cccc3n2)CC1` (centres unmarked) [Compound 209], the IC50 was 117 nM.

In the case of `O=C(NCC(c1cnc(C(F)(F)F)nc1)N1CCCCCC1)c1cccc2ncccc12` (centres unmarked) [Compound 52], the IC50 was 19.1 nM.

Take `O=C(NCC(c1cnc(OC2CCC2)nc1)N1CCC(F)(F)CC1)c1cccc2nc(N3CCCC3)ccc12` (centres unmarked) [Compound 204]: the IC50 is 47.9 nM.

In the case of `O=C(NCC(c1cnc(C(F)(F)F)nc1)N1CCOCC1)c1cccc2nc(NC3CCCC3)ccc12` (centres unmarked) [Compound 179], the IC50 was 89.1 nM.

With `O=C(NCC(c1cnc(NC2CC2)nc1)N1CCC(F)(F)CC1)c1cccc2nc(NC3CC3)ccc12` (centres unmarked) [Compound 270], the IC50 was 102 nM.

Turning to `CC(C)c1ncc(C(CNC(=O)c2cccc3nc(NC4CC4)ccc23)N2CCC(F)(F)CC2)cn1` (centres unmarked) [Compound 261], the IC50 is 37.2 nM.

For the compound `CC(C)N1CCN(c2ccc3c(C(=O)NCC(c4cnc(N)nc4)N4CCC(F)(F)CC4)cccc3n2)CC1` (centres unmarked) [Compound 302], the IC50 is 81.3 nM.

For `O=C(NCC(c1cnc(O)nc1)N1CCC(F)(F)CC1)c1cccc2nc(N3CCOCC3)ccc12` (centres unmarked) [Compound 144], the IC50 is 1050 nM.

On to `O=C(NC[C@@H](c1cnc(C(F)(F)F)nc1)N1CCC(F)(F)CC1)c1cccc2nc(NC3CC3)ccc12` [Compound 175], for which the IC50 is 44.7 nM.

`CC(C)(C)C1CCN(c2ccc3c(C(=O)NCC(c4cnc(C(F)(F)F)nc4)N4CCOCC4)cccc3n2)CC1` (centres unmarked) [Compound 276]: the IC50 was 813 nM.
